Laboratory results reported in PubChem BioAssay (NCI).
Values joined by “and” are separate entries in the source; they are usually repeats but may differ in a detail not shown here. Identical values can stand only once.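 Growth conditions: 96-well plates. Treatment: test compound, 48 hours, 5 concentrations. Analysis: linear interpolation between bracketing concentrations; unreached endpoints set to highest concentration. Here, GI50 denotes the concentration required for 50% inhibition of growth. TGI marks complete inhibition of growth.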

Assays:
Assay in all cases: inhibition of tumour cell growth, NCI panel, 48 h
HOP-62 NSCLC = tested on: HOP-62 NSCLC
HCT-15 colon = tested on: HCT-15 colon
786-0 renal = tested on: 786-0 renal
SK-OV-3 ovarian = tested on: SK-OV-3 ovarian
NCI-H460 lung = tested on: NCI-H460 lung
SR leukemia = tested on: SR leukemia
LOX IMVI melanoma = tested on: LOX IMVI melanoma
HCT-116 colon = tested on: HCT-116 colon
UACC-257 melanoma = tested on: UACC-257 melanoma
HT29 colon = tested on: HT29 colon

| Structure (SMILES) | GI50 (HOP-62 NSCLC) [nM] | TGI (HOP-62 NSCLC) | GI50 (HCT-15 colon) [nM] | TGI (HCT-15 colon) | GI50 (786-0 renal) [nM] | TGI (786-0 renal) | GI50 (SK-OV-3 ovarian) [nM] | TGI (SK-OV-3 ovarian) | GI50 (NCI-H460 lung) [nM] | TGI (NCI-H460 lung) | GI50 (SR leukemia) | TGI (SR leukemia) | GI50 (LOX IMVI melanoma) [nM] | TGI (LOX IMVI melanoma) | GI50 (HCT-116 colon) [nM] | TGI (HCT-116 colon) | GI50 (UACC-257 melanoma) [µM] | TGI (UACC-257 melanoma) | GI50 (HT29 colon) | TGI (HT29 colon) |
| --- | --- | --- | --- | --- | --- | --- | --- | --- | --- | --- | --- | --- | --- | --- | --- | --- | --- | --- | --- | --- |
| COC(=O)CCCNC(=O)C(=O)c1c(O)c(O)c(C(C)C)c2cc(C)c(-c3c(C)cc4c(C(C)C)c(O)c(O)c(C(=O)C(=O)NCCCC(=O)OC)c4c3O)c(O)c12 | 942 | 4.21 µM | 587 | 4.45 µM | 1070 | 7.54 µM | 855 | 2.57 µM | 345 | 3.74 µM | 0.706 µM | 3.17 µM | 537 | 1.48 µM | 156 | 2.31 µM | 1.77 | 6.19 µM | 0.542 µM | 3.81 µM |
| NC(N)=NC(N)=Nc1ccc(S(N)(=O)=O)cc1 | – | > 100 µM | – | > 100 µM | – | > 100 µM | – | > 100 µM | – | > 100 µM | – | > 100 µM | – | > 100 µM | – | > 100 µM | – | > 100 µM | – | > 100 µM |
| COc1ccc(-c2cc(-c3ccc(Cl)cc3)nc(SCCCCCCC(=O)NO)n2)cc1 | 1660 | 15 µM | 1460 | 7.72 µM | 1160 | 3.26 µM | 1620 | 8.54 µM | 1290 | 8.9 µM | 0.59 µM | 3.66 µM | 1220 | 3.05 µM | 1350 | 7.16 µM | 1.88 | > 50 µM | 1.71 µM | 16.6 µM |
| O=C(COC(=O)c1cccc2c(=O)c3ccccc3[nH]c12)Nc1ccc(S(=O)(=O)Nc2ncccn2)cc1 | – | > 100 µM | – | > 100 µM | – | > 100 µM | – | > 100 µM | – | > 100 µM | – | 91 µM | – | > 100 µM | – | > 100 µM | – | > 100 µM | – | > 100 µM |
| CC(C)=CCc1c(O)c(C(=O)CC(C)C)c(O)c2c(-c3ccccc3)cc(=O)oc12 | 15400 | > 50 µM | 7110 | > 50 µM | 10700 | > 50 µM | 10300 | 35.1 µM | 8030 | > 50 µM | 12.8 µM | > 50 µM | 15600 | > 50 µM | 7270 | 43.3 µM | 6.52 | 30.2 µM | 14.1 µM | > 50 µM |
| CC(CCC(=O)O)c1ccc(Br)cc1 (stereo not given) | – | > 100 µM | – | > 100 µM | – | > 100 µM | – | > 100 µM | – | > 100 µM | – | > 100 µM | – | > 100 µM | – | > 100 µM | – | > 100 µM | – | > 100 µM |
| Clc1ccc(COC(Cn2ccnc2)c2ccc(Cl)cc2Cl)c(Cl)c1 (stereo not given) | 2070 | 5.73 µM and 27.2 µM and 26.6 µM | 3940 | 14.6 µM and 24.8 µM and 26.6 µM | 4200 | 14.5 µM and 21 µM and 22.9 µM | 2990 | 9.92 µM and 27.5 µM and 27.4 µM | 4380 | 19.3 µM and > 100 µM and 35 µM | 4.34 µM and 2.47 µM and 5.92 µM | 18.3 µM and 12.3 µM and 22.4 µM | 3510 | 16.2 µM and 34.3 µM and 24.8 µM | 2870 | 11.3 µM and 18.4 µM and 17.7 µM | 5.08 | 17.7 µM and 30.3 µM and 23.2 µM | 3.55 µM and 7.53 µM and 3.17 µM | 15.4 µM and 21.1 µM and 15.5 µM |
